Results from US20090280511A1, “Methods for selecting candidate peptides presented on the surface of cancer cells following their binding to MHC class I molecules” (priority 2008, published 2009).
Residues, ends and D or L forms follow the SMILES beside them. *: point of attachment. Cbz = O=C(OCc1ccccc1)*

Columns and labels:
Type in all cases: cell-based, mouse
DC2.4 cells [1] = assay: H-2Kb/pOV8 presentation after introducing proteins from outside into the cytosol with Chariot
Excerpt: The presentation of H-2Kb/pOV8 was examined when pOV8-YFP and YFP-pOV8 were introduced directly from the outside into the cytosol of DC2.4 cells.
Chariot was used as a reagent for forcibly making the cell membrane permeable to proteins in solution. It was again examined whether the presentation of pOV8 to H-2Kb was improved by fusion of pOV8 to the N-terminus of YFP as compared to fusion to the C-terminus. The cells were heated in the presence of any of YFP, pOV8-YFP, and YFP-pOV8, and the cell membrane permeabilizing agent Chariot. After washing the cells, a whole cell extract was prepared. After SDS-PAGE, Western blotting was performed using anti-YFP antibody (inset of FIG. 5). In addition, the expression of H-2Kb/pOV8 in these cells was measured using the 25D1.16 antibody.

DC2.4 cells [2] = assay: Effect of inhibitors on H-2Kb/pOV8 expression after acid wash
Experimental: The DC2.4 cells were washed with acid 12 hours after transfection as in FIG. 3. The inhibitors were added at 0 hours (time 0). After 6 hours, the cells were recovered and examined.
The effect of various inhibitors on H-2Kb/pOV8 expression was examined. […] DC2.4 cells were transfected with DNA and after two hours, excess DNA was removed and the cells were further incubated for 12 hours. The cells were washed with acid and the indicated inhibitor was added at the same time. After six hours, H-2Kb/pOV8 expression was measured using 25D1.16 antibody.
Other inhibitors were examined as in the experiment described in [8] above.
The same system in [8] above was used to examine the effect of non-natural amino acids such as canavanine or azetidine. It is known that proteins incorporating non-natural amino acids are easily degraded since they fail to fold properly.

DC2.4 cells [3] = assay: H-2Kb/pOV8 expression with or without IFNγ treatment, 25D1.16 antibody; conditions: DC2.4 cells expressing pOV8-YFP or YFP-pOV8
Excerpt: First, DC2.4 cells expressing pOV8-YFP and YFP-pOV8 were respectively treated with IFNγ and analyzed for H-2Kb/pOV8 expression using the 25D1.16 antibody.
Cellular IFNγ treatment causes an increase in class I antigen expression, and the enormous immunological significance of this phenomenon has been elucidated. The principle of N-terminal epitope dominance should play a significant role in direct antigen presentation in the living body, since it brings about an expression difference similar to that which results from the presence or absence of IFNγ treatment.
In the table, the term “whole” means the sum of H-2Kb/pOV8 expression for all cells expressing YFP. The term “at 10^2 fluorescent units” means H-2Kb/pOV8 expression for cells expressing 10^2 fluorescent units of YFP.

Compound	effect of inhibitor on H-2Kb/pOV8 expression (presentation) (DC2.4 cells [2])	also measured
CC(C)C[C@@H](C=O)NC(=O)[C@H](CC(C)C)NC(=O)[C@H](CC(C)C)NC(=O)OCc1ccccc1 [MG132] (Cbz-Leu-Leu-Leu-aldehyde)		effect on antigen presentation of OVA administered with Chariot (DC2.4 cells [1]; OVA plus Chariot): reduced antigen presentation
COc1ccc(C[C@H]2NC[C@H](O)[C@H]2OC(C)=O)cc1 [anisomycin]	inhibited	
C1CNC1 [azetidine]	no effect on antigen presentation	
N=C(N)NOCC[C@H](N)C(=O)O [canavanine]	no variation	
CCN(CC)CCCC(C)Nc1ccnc2cc(Cl)ccc12 (centres unmarked) [chloroquine]	not inhibited	
IFNγ: cytokine used to treat cells; known to increase MHC class I antigen expression		effect of IFNγ treatment on H-2Kb/pOV8 expression (DC2.4 cells [3]): increased
OVA: full-length OVA antigen protein containing the pOV8 epitope		presentation of H-2Kb/pOV8 (DC2.4 cells [1]; protein administered to cells in the presence of Chariot): slight presentation of H-2Kb/pOV8 was observed
a-amanitin	Recovery in H-2Kb/pOV8 expression was not observed	
